Like-named read-outs stand apart in the source and are kept apart here.
Legend:
[1] = test system: ATCC27853; assay: MIC determination, control strain; format: cell-based
Procedure: Determination methods of a Minimal Inhibitory Concentration (MIC) and a Minimum Bactericidal Concentration (MBC) of a test product: the MIC and the MBC of the Pithecellobium clypearia Benth water or ethanol extract to the MDRAB are determined by a microdilution broth method.

[2] = test system: MDRPA; assay: MIC determination, microdilution broth method;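 further: broth microdilution per NCCLS recommendations, testing Pithecellobium clypearia water or ethanol extracts against multidrug-resistant Pseudomonas aeruginosa, with MIC50 and MIC90 derived statistically from individual MICs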
Procedure: Determination methods of a Minimal Inhibitory Concentration (MIC) and a Minimum Bactericidal Concentration (MBC) of a test product: the MIC and the MBC of the Pithecellobium clypearia Benth water or ethanol extract to the MDRAB are determined by a microdilution broth method. And it is operated by referring to the microdilution broth method recommended by National Committee for Clinical Laboratory Standards (NCCLS).
By determining the MIC and the MBC of the drug and making statistics of the data to obtain MIC50, MIC90, MBC50 and MBC90, the effect of the MDRA resistance of the drug is evaluated.
Test method: the MDRPA (serial No.: P1-P20) strains are tested and are evaluated with reference to the method in the first embodiment.

[3] = test system: MDRPA; assay: Checkerboard assay (combined-use MIC, FIC); format: cell-based, Pseudomonas aeruginosa; settings: for FIC, all strains / MIC50 of the antibiotic after combined use / MIC90 of the antibiotic after combined use / reduction of the antibiotic's MIC50 vs single use / reduction of the antibiotic's MIC90 vs single use / share of strains with FIC ≤ 0.5: 20 MDRPAs; for combined-use MIC: EA (P. clypearia water extract) combined with IMP
Procedure: Test methods of the sensibilization effects of the test product to similar antibiotics: it is operated by referring to a checkerboard assay recommended by NCCLS.
The checkerboard assay is performed in a 96-pore sterile culture plate.
Calculation of a Fractional Inhibitory Concentration (FIC): FIC=S20b combined-use MIC/S20b single-use MIC+antibiotic combined-use MIC/antibiotic single-use MIC. By calculating the FIC, the combined antibacterial interaction between the EA and the antibiotic is evaluated, with synergistic effect for FIC≤0.5, additive effect for 0.5<FIC≤1, indifferent effect for 1<FIC≤2 and antagonistic effect for FIC>2. According to a sterile growth pore, the optimum concentration ratio between the EA and the antibiotic is founded out. At last, the effect of the EA to strengthen the efficacy of the antibiotic is evaluated.

[4] = 20 MDRPAs, EA = 60% ethanol extract
[5] = 20 MDRPAs, EA = 95% ethanol extract
[6] = MDRPAs P1-P20, single use, EA=P. clypearia 10% ethanol extract
[7] = MDRPAs P1-P20, single use, EA=P. clypearia water extract
[8] = single use, 20 MDRPAs, section of the 10% ethanol extract
[9] = single use, 20 MDRPAs, section of the 60% ethanol extract
[10] = single use, 20 MDRPAs, section of the 95% ethanol extract
[11] = antibiotic with 10% ethanol extract
[12] = antibiotic with 60% ethanol extract
[13] = antibiotic with 95% ethanol extract
[14] = antibiotic with EA (water extract)

C[C@@H](O)[C@H]1C(=O)N2C(C(=O)O)=C(SCCN=CN)C[C@H]12 [IMP, imipenem]
93.75%: reduction of the antibiotic's MIC50 vs single use [3, 11] | reduction of the antibiotic's MIC50 vs single use [3, 12] | reduction of the antibiotic's MIC50 vs single use [3, 14]
1 µg/mL: MIC ([1]; EA=10% ethanol extract, read-out: MIC) | MIC ([1]; EA=60% ethanol extract, read-out: MIC) | MIC ([1]; EA=95% ethanol extract, read-out: MIC) | MIC ([1]; EA=water extract, read-out: MIC)
4 to 64 µg/mL: MIC Range [2, 4] | MIC Range [2, 5] | MIC Range [2, 6] | MIC Range [2, 7]
50%: share of strains with FIC ≤ 0.5 [3, 11]
2 µg/mL: MIC50 of the antibiotic after combined use [3, 11] | MIC50 of the antibiotic after combined use [3, 12] | MIC50 of the antibiotic after combined use [3, 14] | combined-use MIC ([3]; strain P2) | combined-use MIC ([3]; strain P3) | combined-use MIC ([3]; strain P4) | combined-use MIC ([3]; strain P6) | combined-use MIC ([3]; strain P7) | combined-use MIC ([3]; strain P8) | combined-use MIC ([3]; strain P12) | combined-use MIC ([3]; strain P13) | combined-use MIC ([3]; strain P16) | combined-use MIC ([3]; strain P20)
16 µg/mL: MIC ([2]; Pseudomonas aeruginosa, read-out: MIC (single use), strain P16, EA=P. clypearia 10% ethanol extract) | MIC ([2]; Pseudomonas aeruginosa, read-out: MIC (single use), strain P16, EA=P. clypearia water extract) | MIC ([2]; Pseudomonas aeruginosa, read-out: MIC (single use), strain P17, EA=P. clypearia 10% ethanol extract) | MIC ([2]; Pseudomonas aeruginosa, read-out: MIC (single use), strain P17, EA=P. clypearia water extract) | MIC90 of the antibiotic after combined use [3, 11] | MIC90 of the antibiotic after combined use [3, 12] | MIC90 of the antibiotic after combined use [3, 13] | MIC90 of the antibiotic after combined use [3, 14] | combined-use MIC ([3]; strain P1) | combined-use MIC ([3]; strain P5) | combined-use MIC ([3]; strain P9) | combined-use MIC ([3]; strain P10)
15%: share of strains with FIC ≤ 0.5 [3, 12]
75%: reduction of the antibiotic's MIC90 vs single use [3, 11] | reduction of the antibiotic's MIC90 vs single use [3, 12] | reduction of the antibiotic's MIC50 vs single use [3, 13] | reduction of the antibiotic's MIC90 vs single use [3, 13] | reduction of the antibiotic's MIC90 vs single use [3, 14]
8 µg/mL: MIC ([2]; Pseudomonas aeruginosa, read-out: MIC (single use), strain P11, EA=P. clypearia 10% ethanol extract) | MIC ([2]; Pseudomonas aeruginosa, read-out: MIC (single use), strain P11, EA=P. clypearia water extract) | MIC ([2]; Pseudomonas aeruginosa, read-out: MIC (single use), strain P13, EA=P. clypearia 10% ethanol extract) | MIC ([2]; Pseudomonas aeruginosa, read-out: MIC (single use), strain P13, EA=P. clypearia water extract) | combined-use MIC ([3]; strain P15)
≤ 2: FIC, all strains [3, 11] | FIC, all strains [3, 12] | FIC, all strains [3, 13] | FIC, all strains [3, 14]
4 µg/mL: MIC ([1]; EA=P. clypearia 10% ethanol extract, read-out: MIC (single use)) | MIC ([1]; EA=P. clypearia water extract, read-out: MIC (single use)) | MIC ([1]; single use, EA = 60% ethanol extract, read-out: MIC) | MIC ([1]; single use, EA = 95% ethanol extract, read-out: MIC) | MIC ([2]; Pseudomonas aeruginosa, read-out: MIC (single use), strain P20, EA=P. clypearia 10% ethanol extract) | MIC ([2]; Pseudomonas aeruginosa, read-out: MIC (single use), strain P20, EA=P. clypearia water extract) | MIC50 of the antibiotic after combined use [3, 13] | combined-use MIC ([3]; strain P11) | combined-use MIC ([3]; strain P14) | combined-use MIC ([3]; strain P17) | combined-use MIC ([3]; strain P18) | combined-use MIC ([3]; strain P19)
40%: share of strains with FIC ≤ 0.5 [3, 13] | share of strains with FIC ≤ 0.5 [3, 14]
64 µg/mL: MIC90 [2, 4] | MIC90 [2, 5] | MIC90 [2, 6] | MIC90 [2, 7] | MIC90 ([2]; Pseudomonas aeruginosa) | MIC ([2]; Pseudomonas aeruginosa, read-out: MIC (single use), strain P2, EA=P. clypearia 10% ethanol extract) | MIC ([2]; Pseudomonas aeruginosa, read-out: MIC (single use), strain P2, EA=P. clypearia water extract) | MIC ([2]; Pseudomonas aeruginosa, read-out: MIC (single use), strain P3, EA=P. clypearia 10% ethanol extract) | MIC ([2]; Pseudomonas aeruginosa, read-out: MIC (single use), strain P3, EA=P. clypearia water extract) | MIC ([2]; Pseudomonas aeruginosa, read-out: MIC (single use), strain P5, EA=P. clypearia 10% ethanol extract) | MIC ([2]; Pseudomonas aeruginosa, read-out: MIC (single use), strain P5, EA=P. clypearia water extract) | MIC ([2]; Pseudomonas aeruginosa, read-out: MIC (single use), strain P8, EA=P. clypearia 10% ethanol extract) | MIC ([2]; Pseudomonas aeruginosa, read-out: MIC (single use), strain P8, EA=P. clypearia water extract) | MIC ([2]; Pseudomonas aeruginosa, read-out: MIC (single use), strain P10, EA=P. clypearia 10% ethanol extract) | MIC ([2]; Pseudomonas aeruginosa, read-out: MIC (single use), strain P10, EA=P. clypearia water extract) | MIC ([2]; Pseudomonas aeruginosa, read-out: MIC (single use), strain P19, EA=P. clypearia 10% ethanol extract) | MIC ([2]; Pseudomonas aeruginosa, read-out: MIC (single use), strain P19, EA=P. clypearia water extract) | MIC90 [2, 8] | MIC90 [2, 9] | MIC90 [2, 10]
32 µg/mL: MIC50 [2, 4] | MIC50 [2, 5] | MIC50 [2, 6] | MIC50 [2, 7] | MIC50 ([2]; Pseudomonas aeruginosa) | MIC ([2]; Pseudomonas aeruginosa, read-out: MIC (single use), strain P1, EA=P. clypearia 10% ethanol extract) | MIC ([2]; Pseudomonas aeruginosa, read-out: MIC (single use), strain P1, EA=P. clypearia water extract) | MIC ([2]; Pseudomonas aeruginosa, read-out: MIC (single use), strain P4, EA=P. clypearia 10% ethanol extract) | MIC ([2]; Pseudomonas aeruginosa, read-out: MIC (single use), strain P4, EA=P. clypearia water extract) | MIC ([2]; Pseudomonas aeruginosa, read-out: MIC (single use), strain P6, EA=P. clypearia 10% ethanol extract) | MIC ([2]; Pseudomonas aeruginosa, read-out: MIC (single use), strain P6, EA=P. clypearia water extract) | MIC ([2]; Pseudomonas aeruginosa, read-out: MIC (single use), strain P7, EA=P. clypearia 10% ethanol extract) | MIC ([2]; Pseudomonas aeruginosa, read-out: MIC (single use), strain P7, EA=P. clypearia water extract) | MIC ([2]; Pseudomonas aeruginosa, read-out: MIC (single use), strain P9, EA=P. clypearia 10% ethanol extract) | MIC ([2]; Pseudomonas aeruginosa, read-out: MIC (single use), strain P9, EA=P. clypearia water extract) | MIC ([2]; Pseudomonas aeruginosa, read-out: MIC (single use), strain P12, EA=P. clypearia 10% ethanol extract) | MIC ([2]; Pseudomonas aeruginosa, read-out: MIC (single use), strain P12, EA=P. clypearia water extract) | MIC ([2]; Pseudomonas aeruginosa, read-out: MIC (single use), strain P14, EA=P. clypearia 10% ethanol extract) | MIC ([2]; Pseudomonas aeruginosa, read-out: MIC (single use), strain P14, EA=P. clypearia water extract) | MIC ([2]; Pseudomonas aeruginosa, read-out: MIC (single use), strain P15, EA=P. clypearia 10% ethanol extract) | MIC ([2]; Pseudomonas aeruginosa, read-out: MIC (single use), strain P15, EA=P. clypearia water extract) | MIC ([2]; Pseudomonas aeruginosa, read-out: MIC (single use), strain P18, EA=P. clypearia 10% ethanol extract) | MIC ([2]; Pseudomonas aeruginosa, read-out: MIC (single use), strain P18, EA=P. clypearia water extract) | MIC50 [2, 8] | MIC50 [2, 9] | MIC50 [2, 10]

Polymycin B [POLB]
1 µg/mL: MIC ([1]; EA=10% ethanol extract) | MIC ([1]; EA=60% ethanol extract) | MIC ([1]; EA=95% ethanol extract) | MIC ([1]; EA=water extract)
